{"source": "patent US20250221960A1", "about": "“COMPOSITIONS AND METHODS FOR THE TREATMENT OF DEPRESSION” (Janssen Pharmaceuticals, Inc., priority 2022, published 2025)", "format_in_all_cases": "in vivo, human", "key": {"subjects with MDD [1]": {"tested_on": "subjects with MDD", "experiment": "SHAPS total score (anhedonia), Example 1", "conditions": "for SHAPS Total Score Change from Baseline LSMean (SE), MMRM / SHAPS Total Score Effect Size vs placebo / SHAPS Total Score LSMean Difference (SE) Treatment - Placebo, MMRM: 10 mg", "text": "To assess a potential effect on anhedonia, an anhedonia scale may be used. For example, the Snaith-Hamilton Pleasure Scale (SHAPS) analysis is a validated scale for the measurement of anhedonia. The SHAPS is a subject completed scale in which subjects score whether or not they experience pleasure in performing a list of activities or experiences. The SHAPS is a self-reported 14-item instrument, developed for the assessment of hedonic capacity. Subjects score whether they experience pleasure in performing a list of activities or experiences. Subjects can rate the answers as 1-4 where 1 indicates “Definitely agree”, 2 indicates “Agree”, 3 indicates “Disagree” and 4 indicates “Definitely disagree”. The subject's item responses are summed to provide a total score ranging from 14 to 56. A higher total SHAPS score indicates higher levels of current anhedonia. Physician/clinical judgment can be used to assess anhedonia separately or in conjunction with an anhedonia scale.\nIn some embodiments, the patient has anhedonia. In some embodiments, the patient has moderate anhedonia. In other embodiments, the patient has severe anhedonia. An assessment of moderate or severe anhedonia is typically determined physician/clinical judgment and/or by one or more tests that provide insight into whether a patient has anhedonia. For example, the severity of the anhedonia may be determined using the SHAPS method. In some embodiments, a patient with moderate or severe anhedonia is considered to have a high level of anhedonia. For example, a patient with a SHAPS score of 38 or greater is considered to have moderate to severe anhedonia that can be considered a high level of anhedonia. In some embodiments, a high level of anhedonia is reflected by a SHAPS score of at least about 40, about 42, about 44, about 46, about 48, about 50, about 52, about 54, about 56, about 58, or higher. A patient with mild or no anhedonia would be considered to have a low level of anhedonia that is assessed by physician/clinical judgment and/or one or more tests. For example, a patient with a SHAPS score of less than 38 is considered to have low anhedonia. In certain embodiments, a patient with mild anhedonia may have a SHAPS score of 20 to less than 38, for example, a SHAPS score of 20 to about 36, about 22 to about 36, about 24 to about 36, about 26 to about 36, about 26 to about 34, about 26 to about 32, about 26 to about 30, about 26 to about 28, about 28 to about 36, about 28 to about 36, about 30, to about 36, about 32 to about 36, about 34 to about 36, about 20 to about 34, about 22 to about 34, about 24 to about 34, about 26 to about 32, about 26 to about 30, about 26 to about 28, about 28 to about 36, about 28 to about 34, about 28 to about 32, about 28 to about 30, about 30 to about 36, about 30 to about 34, about 30 to about 32, about 32 to about 36, about 32 to about 34, or about 34 to about 36. Typically, a SHAPS score of less than 20 can be considered to correspond to normal hedonic functioning, and for purposes of this disclosure, would fall into the low category of anhedonia, e.g., a SHAPS score of less than 38.\niii. To investigate the effect of aticaprant versus placebo on depression related anhedonia as assessed by the SHAPS.\nThe treatment phase consisted of 3 periods. […] There were 11 scheduled visits, including screening."}, "subjects with MDD [2]": {"tested_on": "subjects with MDD", "experiment": "SATE score, Example 1", "conditions": "Treatment Week 6, 10 mg", "text": "SATE is a one to three questionnaire administered when the subject is unable to complete other evaluations, i.e., away from the clinical setting such as at home. SATE is useful to evaluate improvement or deterioration of depressive symptoms of the subjects over a short period of time. […] See, Table C.\niv. To investigate the effect of aticaprant on symptoms of depression using the Clinical Global Impression-Severity (CGI-S), the patient reported Symptoms of Major Depressive Disorder Scale (SMDDS) and the self-assessment of treatment experience (SATE).\n(§1) • (i) Depression: Montgomery-Åsberg Depression Rating Scale (MADRS), Clinical Global Impression-Severity (CGI-S), Symptoms of Major Depressive Disorder Scale (SMDDS), and Self-assessment of treatment experience (SATE) • (ii) Anhedonia: Snaith-Hamilton Pleasure Scale (SHAPS) • (iii) Anxiety: Structured Interview Guide for the Hamilton Anxiety scale (SIGH-A) and HAM-A6 • (iv) Effects on Cognition: The Cognitive and Physical Functioning Questionnaire (CPFQ) • (v) Safety assessments"}, "subjects with MDD [3]": {"tested_on": "subjects with MDD", "experiment": "HAM-A6 total score (anxiety), Example 1", "conditions": "Treatment Week 6", "text": "v. To investigate the effect of aticaprant on symptoms of anxiety using the HAM-A and on core symptoms of anxiety using the HAM-A6 subscale.\nas §1"}}, "data": [{"compound": "Cc1cc(C)cc(C2CCCN2Cc2ccc(Oc3ccc(C(N)=O)cc3F)cc2)c1", "note": "(centres unmarked) [aticaprant, 3-fluoro-4-4-2-(3,5-dimethylphenyl) pyrrolidin-1-yl-methylphenoxybenzamide]", "values": [{"measurement": "Frequency of Subjects: High Level of Anhedonia (SHAPS Total Score >= 38)", "setting": "subjects with MDD [1]; Treatment Week 6, eITT, N = 59", "value": "8 (13.56%)"}, {"measurement": "Frequency of Subjects: Low Level of Anhedonia (20 <= SHAPS Total Score < 38)", "setting": "subjects with MDD [1]; Treatment Week 6, eITT, N = 59", "value": "48 (81.36%)"}, {"measurement": "Frequency of Subjects: No Anhedonia (SHAPS Total Score < 20)", "setting": "subjects with MDD [1]; Treatment Week 6, eITT, N = 59", "value": "3 (5.08%)"}, {"measurement": "Frequency of Subjects: High Level of Anhedonia (SHAPS Total Score >= 38)", "setting": "subjects with MDD [1]; Treatment Week 6, fITT, N = 77", "value": "8 (10.39%)"}, {"measurement": "Frequency of Subjects: Low Level of Anhedonia (20 <= SHAPS Total Score < 38)", "setting": "subjects with MDD [1]; Treatment Week 6, fITT, N = 77", "value": "62 (80.52%)"}, {"measurement": "Frequency of Subjects: No Anhedonia (SHAPS Total Score < 20)", "setting": "subjects with MDD [1]; Treatment Week 6, fITT, N = 77", "value": "7 (9.09%)"}, {"measurement": "SHAPS Total Score Change from Baseline LSMean (SE), MMRM", "setting": "subjects with MDD [1]; eITT, Treatment Week 1", "value": "−1.7"}, {"measurement": "SHAPS Total Score Effect Size vs placebo", "setting": "subjects with MDD [1]; eITT, Treatment Week 1", "value": "−0.15"}, {"measurement": "SHAPS Total Score LSMean Difference (SE) Treatment - Placebo, MMRM", "setting": "subjects with MDD [1]; eITT, Treatment Week 1", "value": "−0.8"}, {"measurement": "SHAPS Total Score Change from Baseline LSMean (SE), MMRM", "setting": "subjects with MDD [1]; eITT, Treatment Week 3", "value": "−3.2"}, {"measurement": "SHAPS Total Score Effect Size vs placebo", "setting": "subjects with MDD [1]; eITT, Treatment Week 3", "value": "−0.25"}, {"measurement": "SHAPS Total Score LSMean Difference (SE) Treatment - Placebo, MMRM", "setting": "subjects with MDD [1]; eITT, Treatment Week 3", "value": "−1.4"}, {"measurement": "SHAPS Total Score Change from Baseline LSMean (SE), MMRM", "setting": "subjects with MDD [1]; eITT, Treatment Week 4", "value": "−4.3"}, {"measurement": "SHAPS Total Score Effect Size vs placebo", "setting": "subjects with MDD [1]; eITT, Treatment Week 4", "value": "−0.23"}, {"measurement": "SHAPS Total Score LSMean Difference (SE) Treatment - Placebo, MMRM", "setting": "subjects with MDD [1]; eITT, Treatment Week 4", "value": "−1.4"}, {"measurement": "SHAPS Total Score Change from Baseline LSMean (SE), MMRM", "setting": "subjects with MDD [1]; eITT, Treatment Week 5", "value": "−4.0"}, {"measurement": "SHAPS Total Score Effect Size vs placebo", "setting": "subjects with MDD [1]; eITT, Treatment Week 5", "value": "−0.08"}, {"measurement": "SHAPS Total Score LSMean Difference (SE) Treatment - Placebo, MMRM", "setting": "subjects with MDD [1]; eITT, Treatment Week 5", "value": "−0.5"}, {"measurement": "SHAPS Total Score Change from Baseline LSMean (SE), MMRM", "setting": "subjects with MDD [1]; eITT, Treatment Week 6", "value": "−4.4"}, {"measurement": "SHAPS Total Score LSMean Difference (SE) Treatment - Placebo, MMRM", "setting": "subjects with MDD [1]; eITT, Treatment Week 6", "value": "−0.7"}, {"measurement": "SHAPS Total Score Change from Baseline LSMean (SE), MMRM", "setting": "subjects with MDD [1]; fITT, Treatment Week 1", "value": "−1.9"}, {"measurement": "SHAPS Total Score Effect Size vs placebo", "setting": "subjects with MDD [1]; fITT, Treatment Week 1", "value": "−0.15"}, {"measurement": "SHAPS Total Score LSMean Difference (SE) Treatment - Placebo, MMRM", "setting": "subjects with MDD [1]; fITT, Treatment Week 1", "value": "−1.0"}, {"measurement": "SHAPS Total Score Change from Baseline LSMean (SE), MMRM", "setting": "subjects with MDD [1]; fITT, Treatment Week 3", "value": "−3.1"}, {"measurement": "SHAPS Total Score Effect Size vs placebo", "setting": "subjects with MDD [1]; fITT, Treatment Week 3", "value": "−0.20"}, {"measurement": "SHAPS Total Score LSMean Difference (SE) Treatment - Placebo, MMRM", "setting": "subjects with MDD [1]; fITT, Treatment Week 3", "value": "−1.4"}, {"measurement": "SHAPS Total Score Change from Baseline LSMean (SE), MMRM", "setting": "subjects with MDD [1]; fITT, Treatment Week 4", "value": "−4.1"}, {"measurement": "SHAPS Total Score Effect Size vs placebo", "setting": "subjects with MDD [1]; fITT, Treatment Week 4", "value": "−0.23"}, {"measurement": "SHAPS Total Score LSMean Difference (SE) Treatment - Placebo, MMRM", "setting": "subjects with MDD [1]; fITT, Treatment Week 4", "value": "−1.6"}, {"measurement": "SHAPS Total Score Change from Baseline LSMean (SE), MMRM", "setting": "subjects with MDD [1]; fITT, Treatment Week 5", "value": "−4.1"}, {"measurement": "SHAPS Total Score Effect Size vs placebo", "setting": "subjects with MDD [1]; fITT, Treatment Week 5", "value": "−0.09"}, {"measurement": "SHAPS Total Score LSMean Difference (SE) Treatment - Placebo, MMRM", "setting": "subjects with MDD [1]; fITT, Treatment Week 5", "value": "−0.8"}, {"measurement": "SHAPS Total Score Change from Baseline LSMean (SE), MMRM", "setting": "subjects with MDD [1]; fITT, Treatment Week 6", "value": "−4.5"}, {"measurement": "SHAPS Total Score LSMean Difference (SE) Treatment - Placebo, MMRM", "setting": "subjects with MDD [1]; fITT, Treatment Week 6", "value": "−0.8"}, {"measurement": "Number of Subjects with SATE Score: Depression Worsened (Much worse)", "setting": "subjects with MDD [2]; n = 0", "value": 0, "unit": "subjects"}, {"measurement": "Number of Subjects with SATE Score: Depression Worsened (Slightly worse)", "setting": "subjects with MDD [2]; n = 0", "value": 0, "unit": "subjects"}, {"measurement": "Number of Subjects with SATE Score: Depression Worsened (Very much worse)", "setting": "subjects with MDD [2]; n = 0", "value": 0, "unit": "subjects"}, {"measurement": "Number of Subjects with SATE Score: Depression Much improved", "setting": "subjects with MDD [2]; n = 21", "value": 6, "unit": "subjects"}, {"measurement": "Number of Subjects with SATE Score: Depression Slightly improved", "setting": "subjects with MDD [2]; n = 21", "value": 15, "unit": "subjects"}, {"measurement": "Number of Subjects with SATE Score: Depression Very Much Improved", "setting": "subjects with MDD [2]; n = 21", "value": 0, "unit": "subjects"}, {"measurement": "Number of Subjects with SATE Score: Overall Depression (Got worse)", "setting": "subjects with MDD [2]; n = 30", "value": 0, "unit": "subjects"}, {"measurement": "Number of Subjects with SATE Score: Overall Depression (Improved)", "setting": "subjects with MDD [2]; n = 30", "value": 21, "unit": "subjects"}, {"measurement": "Number of Subjects with SATE Score: Overall Depression (Not changed)", "setting": "subjects with MDD [2]; n = 30", "value": 9, "unit": "subjects"}, {"measurement": "improvement in HAMA6 score vs. placebo", "setting": "subjects with MDD [3]", "value": "greater improvement"}]}]}
